Test results: patent US8920819B2, “Delivery of hydrophilic drugs” (University College London, priority 2009, dated 2014)

Experiments:
CD-1 mice [1] = experiment: Antinociception, tail flick warm water bioassay, oral administration; format: in vivo, ICR (CD-1) male out bred mice; conditions: 70 mg Kg^-1 Leucine[5]-Enkephalin (L, LG) or 100 mg Kg^-1 TPLENK (PG), out of 16 mice
Protocol: (§1) ICR (CD-1) male out bred mice (22-28 g, 4-5 weeks old, Harlan, Oxon, UK) were used. The animals were housed in groups of 5 in plastic cages in controlled laboratory conditions with ambient temperature and humidity maintained at ˜22° C. and 60% with a 12-hour light and dark cycle (lights on at 8:00 and off at 20:00). Food and water were available ad libitum and the animals acclimatised for 5-7 days, prior to any experiments, in the Animal House, School of Pharmacy, University of London (London, UK). Animals were fasted overnight for oral delivery experiments. Animals were only used once and were acclimatised at the testing environment for at least 20 hours prior to testing. […]
Double de-ionised filtered (0.2 μm, 33 mm Millex GP syringe driven filter unit, PES membrane for sterilisation of aqueous solutions) water was used as the disperse phase. […] The administered volume was adjusted based on HPLC quantification of LENK and TPLENK and the body weight of each animal. […]
Antinociception was assessed in mice using the tail flick warm water bioassay (D'Amour and Smith 1941; Mogil et al. 1999). […] The response latency times, in centiseconds, recorded for each mouse to withdraw its tail by a “sharp flick” were recorded using a digital stopwatch capable of measuring 1/100th of a second. […] Briefly, percent antinociception was calculated as 100% ×(test latency-baseline latency)/(10 seconds−baseline latency). […]

CD-1 mice [2] = experiment: Antinociception, tail flick warm water bioassay, intravenous administration; format: in vivo, ICR (CD-1) male out bred mice; conditions: 14 mg Kg^-1 Leucine[5]-Enkephalin (L, LG) or 20 mg Kg^-1 TPLENK (PG), out of 8 mice
Protocol: as §1, with “60% respectively” for “60%”, “were” for “were fasted overnight for oral delivery experiments. Animals were”, “acclimatised in” for “acclimatised at”
Sodium Chloride 0.9% (pH 7.4) was used as the disperse phase. […] The administered volume was adjusted based on HPLC quantification of Leucine^[5]-Enkephalin and TPLENK and the body weight of each animal. […]
Antinociception was assessed in mice using the tail flick warm water bioassay (D'Amour and Smith 1941; Mogil et al. 1999). […] The response latency times, in centiseconds, recorded for each mouse to withdraw its tail by a “sharp flick” were recorded using a digital stopwatch capable of measuring 1/100th of a second. […] Mice not responding within 5 sec were excluded from further testing (Baseline cut-off=5 seconds) and the baseline latency was measured for all mice 2 hours prior testing. […]
All results were expressed as mean±standard error (i.e. SE: SD/√n). […]

[3] = HPLC quantification of the peptide content of the formulations; format: physicochemical; conditions: formulations for oral administration, not filtered
Description: Formulations were not filtered.
The formulations were left overnight in the fridge and prior to intravenous administration were filtered (0.8 μm, 13 mm, Acrodisc Syringe Filter, Super Low Protein Binding Non-Pyrogenic Membrane, PALL Life Sciences). A clear filtrate was obtained for Leucine^[5]-Enkephalin and Leucine^[5]-Enkephalin and GCPQ and a translucent liquid was obtained for Palmitoylated Leucine^[5]-Enkephalin (TPLENK) and GCPQ. The administered intravenous volume of the formulations was set to a maximum of 0.2 ml per mouse. […] The maximum volume was dosed for placebo (NaCl, 0.9% w/v) receiving mice.
Polymer dispersions with Leucine^[5]-Enkephalin (LENK) or Palmitoylated Leucine^[5]-Enkephalin (TPLENK) were dissolved in mobile phase and analysed by HPLC. Samples were chromatographed over a reverse phase HPLC Sunfire C18 column (5 μm, 4.6 mm×250 mm) with a guard column attached [Waters Sunfire C18 (5 μm, 4.6 mm×10 mm)], using a Waters™ 515 HPLC pump connected to a Water™ 717 plus Autosampler with a Waters™ 486 Tunable Absorbance Detector. The mobile phase consisted of 82% 50 mM acetate buffer and 18% acetonitrile (pH 5.8). Unless otherwise indicated, samples were detected at 280 nm. The flow rate was set at 1 mL min^−1 at 35° C. and an injection volume of 40 μL was used. […] Empower software I was used for data analysis. […]

[4] = Pharmacokinetics after oral administration; plasma and brain Leucine[5]-Enkephalin by radioimmunoassay; format: in vivo, ICR (CD-1) male out bred mice; conditions: mice
Protocol: ICR (CD-1) male out bred mice (18-24 g, 4 weeks old, Harlan, Oxon, UK) were used. The animals were housed in groups of 5 in plastic cages in controlled laboratory conditions with ambient temperature and humidity maintained at ˜22° C. and 60% with a 12-hour light and dark cycle (lights on at 7:00 and off at 19:00). Food and water were available ad libitum and the animals acclimatised for 5-7 days prior to any experiments in the Animal House, School of Pharmacy, University of London (London, UK). Animals were fasted overnight for oral delivery experiments. Animals were only used once and were acclimatised at the testing environment for at least 1 hour prior to testing.
Syringes were attached to 19-20G commercial gavage needles (2-3 cm long) for oral administration.
Double de-ionised filtered (0.2 μm, 33 mm Millex GP syringe driven filter unit, PES membrane for sterilisation of aqueous solutions) water was used as the disperse phase for the oral formulations. […] All formulations were prepared by vortexing (WhirliMixer, Fisherbrand) and then by probe sonication (MSE Soniprep 150) with the instrument set at 50% of its maximum output for 15 minutes on ice. The formulations were left overnight in the fridge; the administered volume was set to a maximum of 0.2 ml per mouse. The administered volume was adjusted based on the HPLC quantification of LENK and TPLENK and the body weight of each animal. The maximum volume was dosed for placebo (H2O) receiving mice.
Blood samples (0.4-0.8 mls per mouse) were collected into a chilled syringe and transferred into evacuated sterile spray coated (with tripotassium ethylenediamine tetraacetic acid—3.6 mg) medical grade PET tubes (3×75 mm K3E Vacutainer©, BD Biosciences, UK) and maintained on ice (4° C.) until centrifugation. There is no dilution effect in spray coated tubes. Plasma was obtained as the supernatant after centrifugation of blood samples at 1,600 g or 4800 rpm for 15 minutes at 4° C. with a Hermle Z323 centrifuge (Hermle Laborteschink GmbH, Germany) and was pipetted into 1.5 mL centrifuge tubes and stored at −70° C. for later use.
Brain tissue minus the cerebellum (0.25-0.35 g) recovered from mice was immediately frozen in liquid nitrogen (−80° C.) until they were homogenised. The brain weight was recorded for each individual animal. After thawing tissues were boiled for 10 minutes in 30 volumes of a mixture of 1M of acetic acid, 0.02M of hydrochloric acid and 0.1% 2-mercaptoethanol (De Ceballos et al. 1991; Ahmed et al. 1994; Wu et al. 2005). The tissues were homogenised with 80 strokes per minute for half a minute with a glass 3 mL homogeniser (Jencons-PLS, England). […]

CC(C)C[C@H](NC(=O)[C@H](Cc1ccccc1)NC(=O)CNC(=O)CNC(=O)[C@@H](N)Cc1ccc(O)cc1)C(=O)O [L, Leucine^[5]-Enkephalin]
analgesic responders (response 2 or more times the baseline latency) (CD-1 mice [1]): 31.25% | mice reaching maximal possible latencies (CD-1 mice [1]; cut-off 10 seconds): 6.25% | analgesic responders (response 2 or more times the baseline latency) (CD-1 mice [2]): 37.5% | mice reaching maximal possible latencies (CD-1 mice [2]; cut-off 10 seconds): 0% | peptide content of the formulations (HPLC) [3]: 99.9% | time of peak Leucine[5]-Enkephalin concentration in the brain tissue ([4]; 70 mg Kg^-1 Leucine[5]-Enkephalin (L, LG) or 100 mg Kg^-1 TPLENK (PG), brain): 4 h | peak Leucine[5]-Enkephalin concentration in the brain tissue ([4]; 70 mg Kg^-1 Leucine[5]-Enkephalin (L, LG) or 100 mg Kg^-1 TPLENK (PG), brain, at 4 hours): 0.695 ng/g | peak plasma concentration of Leucine[5]-Enkephalin ([4]; 70 mg Kg^-1 Leucine[5]-Enkephalin (L, LG) or 100 mg Kg^-1 TPLENK (PG), plasma): 29.3 ng 10^−1mL^−1 | Tmax ([4]; male, ICR (CD-1), mouse, 70 mg Kg^-1 Leucine[5]-Enkephalin, plasma, read-out: time of peak plasma concentration of Leucine[5]-Enkephalin): 1 h
